Source: patent US9566312B2, “Cyclic peptides and use as medicines” (priority 2012, dated 2017)
Like-named read-outs stand apart in the source and are kept apart here. Starred links: 1 amine or outer side, 2 acyl side, 3 side chain; linkers in the order of their positions; H or OH if unused. Non-standard residues stand in square brackets, D forms with d. Residues, ends and D or L forms follow the SMILES beside them. X42 = C[C@H](CCCOC(=O)N(C)C1CCN(C)CC1)[C@@H](C(=O)[*:2])N(C)[*:1]; X44 = CC(C)N1CCN(C(=O)COC[C@@H](C)[C@@H](C(=O)[*:2])N(C)[*:1])CC1; X69 = C[C@H](CCCN1CCC(C(N)=O)CC1)[C@@H](C(=O)[*:2])N(C)[*:1]; X1 = COC[C@@H]1CN(C[C@H](C)[C@@H](C(=O)[*:2])N(C)[*:1])CCO1; X36 = C[C@H](COCCN(C)CC(F)(F)F)[C@@H](C(=O)[*:2])N(C)[*:1]; X52 = C[C@H](CCC(=O)N1CCOCC1)[C@@H](C(=O)[*:2])N(C)[*:1]; X39 = C[C@H](CN1CCC(C#N)CC1)[C@@H](C(=O)[*:2])N(C)[*:1]; X47 = C[C@H](CN1CCC(F)(F)C1)[C@@H](C(=O)[*:2])N(C)[*:1]; MeBmt = C/C=C/C[C@@H](C)[C@@H](O)[C@H](NC)C(=O)O; NMeVal(4-OMe,3S) = CN[C@H](C(=O)O)[C@H](C)COC; NMeL = CN[C@@H](CC(C)C)C(=O)O; NMeV = CN[C@H](C(=O)O)C(C)C; dNMeS = CN[C@H](CO)C(=O)O; dNMeA = CN[C@H](C)C(=O)O; Abu = CC[C@H](N)C(=O)O

Tests used:
[1] = target: organic anion transporting polypeptide 1B1 (OATP1B1) (Homo sapiens (Human), UniProt Q9Y6L6); test: OATP assay in CHO-OATP1B1 cells;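 also: inhibition of probe substrate uptake into the cells, ten minutes exposure, accumulated substrate read by fluorescence once cells were lysed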
[2] = target: cyclophilin B (CypB) (Homo sapiens (Human), UniProt P23284); test: Inhibitor binding to cyclophilin proteins by SPR, CypB; set-up: unit not given here; details: 1:1 binding model
Procedure: (§1) Method 1: Measuring Inhibitor Binding to Cyclophilin Proteins
(§2) Binding of inhibitors to expressed cyclophilins was determined using surface plasmon resonance (SPR) experiments. Briefly, avi-tagged cyclophilin proteins with mono-biotinylation were immobilized onto a Biotin CAPture chip (GE Healthcare, cat. #28920234). SPR experiments were carried out on an upgraded Biacore T200 system using a running buffer containing the inhibitor, 10 mM HEPES, pH 7.4, 150 mM NaCl, 0.05% P20, and 3% DMSO. Single-cycle kinetics measurements were used to study the interactions between cyclophilin inhibitors and different cyclophlins. Accordingly, compound at various concentrations was injected to the flow cells with a contact time of 1 min each at a flow rate of 50 μL/min. The final dissociation phase lasts for 10 min following the sample injection. Data was analyzed using Biacore T200 Evaluation Software Version 1.0 and a 1:1 binding model was applied to fit the data to obtain kon, koff, and KD.

[3] = target: cyclophilin A (CypA) (Homo sapiens (Human), UniProt P62937); test: Inhibitor binding to cyclophilin proteins by SPR, CypA; set-up: unit not given here; details: 1:1 binding model
[4] = target: CypF (Homo sapiens (Human), UniProt P30405); test: Inhibitor binding to cyclophilin proteins by SPR, CypF; details: 1:1 binding model
Procedure: as §1, §2

[5] = test system: genotype 1b subgenomic HCV replicon in Huh7.5 cells; assay type: cell-based, hepatitis C virus; details: read-out: RPLN-1b IC50
Procedure: Method 2: Measuring Inhibitory Effects in a HCV Replicon System
Susceptibility to compounds was analyzed in Huh7.5 cells containing genotype 1a or 1b subgenomic HCV replicons co-expressing a luciferase reporter gene. The original replicons, pFK389lucubineo_3_3′_ET and pH/SG-Neo(L+I), were licensed from ReBlicon GmbH (Germany) and Apath LLC (Saint Louis, Mo.), respectively. The firefly reporter gen was replaced by renilla luciferase reporter gene using standard molecular biology techniques as follows.
Generation of genotype 1b subgenomic replicon: The renilla […]-neomycin phosphotransferase cassette was amplified from pF9 cytomegalovirus (CMV) hRluc-Neo Flexi(R) (Promega) by PCR using Accuprime super mix II (Invitrogen) and a primer set of Ascl hRlucNeo Fwd and NotI hRluc Rev. These two primers have the following sequences and introduce restriction sites for subsequent cloning: Ascl hRlucNeo Fwd, 5 […] 3(Ascl site underlined) (SEQ. ID No. 1), and NotI hRluc Rev, 5[…] 3(NotI site underlined) (SEQ ID No. 2). The amplification product was subcloned into pCR2.1-TOPO (Invitrogen). The resulting plasmid was digested with Ascl and NotI, and the excised fragment (hRluc-Neo) was ligated with the Roche Quick Ligation Kit (Roche) into pFK1389lucubineo_3_3′_ET digested with the same enzymes.
The assay medium for both, luciferase reporter HCV replicon and cytotoxicity assays contains phenol red-free DMEM and lacks G418. […] Luciferase activity of compound treated cells is measured relative to DMSO treated cells after 72 h incubation using Renilla-Glo™ Luciferase Assay (Promega). Cytotoxicity (CC50) is analyzed using Cell Titer-Glo™ (Promega).

[6] = test system: peripheral blood mononuclear cells (PBMC); test: Anti-proliferative or immunosuppressive activity, BrdU incorporation in PHA-stimulated PBMC; assay type: cell-based; details: PHA 3 μg/ml, 60 hour compound treatment; read-out: EMV PBMC IC50
Procedure: Method 3: Measuring Anti-Proliferative or Immunosuppressive Activity
The potential anti-proliferative activity of compounds on T-cells was analyzed based on the amount of bromodesoxy uridine (BrdU) incorporated into DNA of fresh peripheral blood mononuclear cells (PBMC) using the BrdU ELISA kit (Roche). The assay is performed in 96-well plate format with 30,000 PBMCs seeded per well in X-VIVO 15 medium (Lonza). T-cell proliferation was stimulated by addition of 3 μg/ml phytohemagglutinin (PHA) in PBMCs obtained from two donors.

[7] = genotype 1b replicon, 72 h incubation

Chain of CypF (P30405 30-207): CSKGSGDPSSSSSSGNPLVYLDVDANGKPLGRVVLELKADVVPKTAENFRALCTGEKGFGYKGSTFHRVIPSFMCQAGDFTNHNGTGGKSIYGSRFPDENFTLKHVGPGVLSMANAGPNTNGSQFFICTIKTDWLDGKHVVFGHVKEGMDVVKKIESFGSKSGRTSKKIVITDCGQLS
Chain of organic anion transporting polypeptide 1B1 (OATP1B1) (Q9Y6L6 whole entry): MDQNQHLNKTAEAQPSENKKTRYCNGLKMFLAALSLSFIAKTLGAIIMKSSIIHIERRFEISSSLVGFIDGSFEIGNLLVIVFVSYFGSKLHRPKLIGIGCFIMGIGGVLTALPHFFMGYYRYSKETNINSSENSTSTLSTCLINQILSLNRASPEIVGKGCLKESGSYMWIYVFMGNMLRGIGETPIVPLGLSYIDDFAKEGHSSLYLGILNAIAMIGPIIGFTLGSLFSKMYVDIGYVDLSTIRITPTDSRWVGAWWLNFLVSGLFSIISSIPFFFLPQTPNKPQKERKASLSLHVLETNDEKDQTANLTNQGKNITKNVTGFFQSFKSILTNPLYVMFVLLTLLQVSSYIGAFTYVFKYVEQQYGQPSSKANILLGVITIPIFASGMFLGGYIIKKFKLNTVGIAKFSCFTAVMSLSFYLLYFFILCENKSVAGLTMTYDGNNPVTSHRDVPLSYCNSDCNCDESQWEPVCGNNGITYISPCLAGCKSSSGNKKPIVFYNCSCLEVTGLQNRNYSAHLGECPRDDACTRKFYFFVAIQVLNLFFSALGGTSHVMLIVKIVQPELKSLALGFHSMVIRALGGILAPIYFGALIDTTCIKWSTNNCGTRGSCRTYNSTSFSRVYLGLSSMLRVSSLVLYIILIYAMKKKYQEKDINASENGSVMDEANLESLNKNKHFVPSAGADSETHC
Chain of cyclophilin B (CypB) (P23284 34-216): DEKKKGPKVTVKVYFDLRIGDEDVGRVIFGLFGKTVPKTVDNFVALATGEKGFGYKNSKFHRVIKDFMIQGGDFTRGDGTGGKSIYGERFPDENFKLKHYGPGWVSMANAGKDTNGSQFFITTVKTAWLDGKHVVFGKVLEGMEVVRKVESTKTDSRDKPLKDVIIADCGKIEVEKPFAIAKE
Chain of cyclophilin A (CypA) (P62937 whole entry): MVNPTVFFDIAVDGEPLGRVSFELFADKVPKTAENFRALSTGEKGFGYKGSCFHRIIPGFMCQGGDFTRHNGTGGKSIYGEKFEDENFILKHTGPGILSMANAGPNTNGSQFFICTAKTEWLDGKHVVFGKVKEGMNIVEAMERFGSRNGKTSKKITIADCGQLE

| SMILES | IC50 [1] | CypB Kd [2] | CypA Kd [3] | CypF Kd [4] | IC50 [5, 7] | IC50 [6] | IC50 [5] |
| --- | --- | --- | --- | --- | --- | --- | --- |
| C/C=C/C[C@@H](C)[C@@H](O)[C@H]1C(=O)N[C@@H](CC)C(=O)N(C)[C@H](C)C(=O)N(C)[C@@H]([C@H](C)CCC(=O)N2CCOCC2)C(=O)N[C@@H](C(C)C)C(=O)N(C)[C@@H](CC(C)C)C(=O)N[C@@H](C)C(=O)N[C@H](C)C(=O)N(C)[C@@H](CC(C)C)C(=O)N(C)[C@@H](CC(C)C)C(=O)N(C)[C@@H](C(C)C)C(=O)N1C [Compound 2.14.4, 3-[D-Ala]-4-[(2S,3R)-3-methyl-2-(methylamino)-6-morpholino-6-oxohexanoyl]-cyclosporin] (cyclo(A[dA][NMeL][NMeL][NMeV][MeBmt][Abu][dNMeA][X52]V[NMeL])) | 4800 nM | 1.5 | 2.1 | 1.1 nM |  |  |  |
| C/C=C/C[C@@H](C)[C@@H](O)[C@H]1C(=O)N[C@@H](CC)C(=O)N(C)[C@H](C)C(=O)N(C)[C@@H]([C@H](C)CCCOC(=O)N(C)C2CCN(C)CC2)C(=O)N[C@@H](C(C)C)C(=O)N(C)[C@@H](CC(C)C)C(=O)N[C@@H](C)C(=O)N[C@H](C)C(=O)N(C)[C@@H](CC(C)C)C(=O)N(C)[C@@H](CC(C)C)C(=O)N(C)[C@@H](C(C)C)C(=O)N1C [Compound 2.19.9, 3-[D-Ala]-4-[(2S,3R)-3-methyl-6-((methyl(1-methylpiperidin-4-yl)carbamoyl)oxy)-2-(methylamino)hexanoyl]-cyclosporin] (cyclo(A[dA][NMeL][NMeL][NMeV][MeBmt][Abu][dNMeA][X42]V[NMeL])) | 3700 nM | 0.4 | 0.8 | 0.4 nM |  |  |  |
| C/C=C/C[C@@H](C)[C@@H](O)[C@H]1C(=O)N[C@@H](CC)C(=O)N(C)[C@H](C)C(=O)N(C)[C@@H]([C@H](C)COCCN(C)CC(F)(F)F)C(=O)N[C@@H](C(C)C)C(=O)N(C)[C@@H](CC(C)C)C(=O)N[C@@H](C)C(=O)N[C@H](C)C(=O)N(C)[C@@H](CC(C)C)C(=O)N(C)[C@@H](CC(C)C)C(=O)N(C)[C@@H](C(C)C)C(=O)N1C [Compound 2.8.3, 3-[D-Ala]-4-[(2S,3S)-3-methyl-4-(2-(methyl(2,2,2-trifluoroethyl)amino)ethoxy)-2-(methylamino)butanoyl]-cyclosporin] (cyclo(A[dA][NMeL][NMeL][NMeV][MeBmt][Abu][dNMeA][X36]V[NMeL])) | 1900 nM | 3.3 | 4.4 | 4.1 nM |  |  |  |
| C/C=C/C[C@@H](C)[C@@H](O)[C@H]1C(=O)N[C@@H](CC)C(=O)N(C)[C@H](C)C(=O)N(C)[C@@H]([C@H](C)COCC(=O)N2CCN(C(C)C)CC2)C(=O)N[C@@H](C(C)C)C(=O)N(C)[C@@H](CC(C)C)C(=O)N[C@@H](C)C(=O)N[C@H](C)C(=O)N(C)[C@@H](CC(C)C)C(=O)N(C)[C@@H](CC(C)C)C(=O)N(C)[C@@H](C(C)C)C(=O)N1C [Compound 2.6.4, 3-[D-Ala]-4-[(2S,3S)-4-(2-(4-isopropylpiperazin-1-yl)-2-oxoethoxy)-3-methyl-2-(methylamino)butanoyl]-cyclosporin] (cyclo(A[dA][NMeL][NMeL][NMeV][MeBmt][Abu][dNMeA][X44]V[NMeL])) | 8000 nM | 1.1 | 1.4 | 0.6 nM |  |  |  |
| C/C=C/C[C@@H](C)[C@@H](O)[C@H]1C(=O)N[C@@H](CC)C(=O)N(C)[C@H](C)C(=O)N(C)[C@@H]([C@@H](C)CN2CCO[C@H](COC)C2)C(=O)N[C@@H](C(C)C)C(=O)N(C)[C@@H](CC(C)C)C(=O)N[C@@H](C)C(=O)N[C@H](C)C(=O)N(C)[C@@H](CC(C)C)C(=O)N(C)[C@@H](CC(C)C)C(=O)N(C)[C@@H](C(C)C)C(=O)N1C [Compound 2.17.11, 3-[D-Ala]-4-[(2S,3S)-4-((S)-2-(methoxymethyl)morpholino)-3-methyl-2-(methylamino)butanoyl]-cyclosporin] (cyclo(A[dA][NMeL][NMeL][NMeV][MeBmt][Abu][dNMeA][X1]V[NMeL])) |  | 0.7 | 1.1 | 0.6 nM | 22 nM | 36400 nM |  |
| C/C=C/C[C@@H](C)[C@@H](O)[C@H]1C(=O)N[C@@H](CC)C(=O)N(C)[C@H](C)C(=O)N(C)[C@@H]([C@H](C)CN2CCC(C#N)CC2)C(=O)N[C@@H](C(C)C)C(=O)N(C)[C@@H](CC(C)C)C(=O)N[C@@H](C)C(=O)N[C@H](C)C(=O)N(C)[C@@H](CC(C)C)C(=O)N(C)[C@@H](CC(C)C)C(=O)N(C)[C@@H](C(C)C)C(=O)N1C [Compound 2.5.26, 3-[D-Ala]-4-[(2S,3R)-4-(4-cyanopiperidin-1-yl)-3-methyl-2-(methylamino)butanoyl]-cyclosporin] (cyclo(A[dA][NMeL][NMeL][NMeV][MeBmt][Abu][dNMeA][X39]V[NMeL])) |  | 0.8 | 1.3 | 0.8 nM | 29 nM | 11600 nM |  |
| C/C=C/C[C@@H](C)[C@@H](O)[C@H]1C(=O)N[C@@H](CC)C(=O)N(C)[C@H](C)C(=O)N(C)[C@@H]([C@H](C)CCCN2CCC(C(N)=O)CC2)C(=O)N[C@@H](C(C)C)C(=O)N(C)[C@@H](CC(C)C)C(=O)N[C@@H](C)C(=O)N[C@H](C)C(=O)N(C)[C@@H](CC(C)C)C(=O)N(C)[C@@H](CC(C)C)C(=O)N(C)[C@@H](C(C)C)C(=O)N1C [Compound 2.19.2, 3-[D-Ala]-4-[(2S,3R)-6-(4-carbamoylpiperidin-1-yl)-3-methyl-2-(methylamino)hexanoyl]-cyclosporin] (cyclo(A[dA][NMeL][NMeL][NMeV][MeBmt][Abu][dNMeA][X69]V[NMeL])) |  | 0.6 | 0.9 | 0.5 nM | 2700 nM | 32300 nM |  |
| C/C=C/C[C@@H](C)[C@@H](O)[C@H]1C(=O)N[C@@H](CC)C(=O)N(C)[C@H](C)C(=O)N(C)[C@@H]([C@H](C)CN2CCC(F)(F)C2)C(=O)N[C@@H](C(C)C)C(=O)N(C)[C@@H](CC(C)C)C(=O)N[C@@H](C)C(=O)N[C@H](C)C(=O)N(C)[C@@H](CC(C)C)C(=O)N(C)[C@@H](CC(C)C)C(=O)N(C)[C@@H](C(C)C)C(=O)N1C [Compound 2.5.18, 3-[D-Ala]-4-[(2S,3R)-4-(3,3-difluoropyrrolidin-1-yl)-3-methyl-2-(methylamino)butanoyl]-cyclosporin] (cyclo(A[dA][NMeL][NMeL][NMeV][MeBmt][Abu][dNMeA][X47]V[NMeL])) |  | 1.8 | 3.9 | 2 nM | 9 nM | 12100 nM |  |
| C/C=C/C[C@@H](C)[C@@H](O)[C@H]1C(=O)N[C@@H](CC)C(=O)N(C)[C@H](CO)C(=O)N(C)[C@@H]([C@H](C)COC)C(=O)N[C@@H](C(C)C)C(=O)N(C)[C@@H](CC(C)C)C(=O)N[C@@H](C)C(=O)N[C@H](C)C(=O)N(C)[C@@H](CC(C)C)C(=O)N(C)[C@@H](CC(C)C)C(=O)N(C)[C@@H](C(C)C)C(=O)N1C [Compound 3.2.3, 3-[D-ser]-4-[(2S,3S)-4-methoxy-3-methyl-2-(methylamino)butanoyl]-cyclosporin] (cyclo(A[dA][NMeL][NMeL][NMeV][MeBmt][Abu][dNMeS][NMeVal(4-OMe,3S)]V[NMeL])) |  | 7 | 15 | 7 nM |  | 8900 nM | 330 nM |
